Where a SMILES comes first, the peptide text is derived from it. [ ]: non-standard residue; d: D form. The star is where a group is joined. DOTA = O=C(O)CN1CCN(CC(=O)O)CCN(CC(=O)*)CCN(CC(=O)O)CC1; Ahx = NCCCCCC(=O)O
How the values were obtained:
[1] = system: 4T1 tumor-bearing BALB/c mice; assay type: in vivo
Procedure: (§1) Female BALB/c mice of 4–5 weeks were purchased from Beijing Biotechnology Co., Ltd. (Beijing, China). The 4T1 murine cancer model was established by the injection of 3 × 10^5 cells/150 μl into the front right limbs of female BALB/c mice. Experiments started when the tumors reached a volume of approximately 250–350 mm^3.
PET images were acquired on a micro-PET scanner (InliView-3000B, Minfound, Hangzhou, China). Mice bearing subcutaneous tumors were anesthetized with isoflurane (1.0–1.5%) and then were injected with about 5.55 MBq of ^68Ga-DOTA-^DTBP-3 via the tail vein. In the blocking group, tumor-bearing BALB/c were pretreated with the 40-fold excess of ^DTBP-3 for 0.5 h, and then injected equal dose of radiotracer with the above groups. Static imaging (15 min) was collected at different time points (0.5, 1 and 2 h post-injection).

A375 cells = assay: cell uptake experiment, A375 cells; assay type: cell-based, human; details: A375 cells (low TIGIT expression), at 0.5 h; time points 15, 30, 60, 120 min; γ-count
Procedure: (§2) For cell uptake experiments, 4T1 and A375 cells were incubated with ^68Ga-DOTA-^DTBP-3 at different time points (15, 30, 60 and 120 min), respectively. Then, the cells were washed 3 times with cold PBS, and 0.1 M NaOH solution was used to lyse the cells and collected for γ-count.

4T1 cells = assay: cell uptake experiment, 4T1 cells; assay type: cell-based, murine
Procedure: as §2

[2] = system: 4T1 tumor-bearing BALB/c mice; assay type: in vivo; remark: listed apart in the source
Procedure: as §1
Female BALB/c tumor-bearing mice with subcutaneous 4T1 xenografts were randomly divided into 2 groups (n = 9 for the experimental group, and n = 3 for the blocking group), and then were injected with 3.70 MBq of ^68Ga-DOTA-^DTBP-3 via the tail vein. At different time points (0.5, 1 and 2 h post-injection for the experimental group, 0.5 h post-injection for the blocking group), the mice were euthanized, and the tumor, main organs (muscle, bone, large intestine, small intestine, stomach, kidney, spleen, liver, lung, heart, brain) and blood were weighed and counted by a γ counter. The results are expressed as percentage injected dose per gram of tissue (% ID/g), and the values were calculated based on signal decay correction and normalization to external ^68Ga standards.

In the case of `CC(C)C[C@@H](NC(=O)[C@@H](CCCNC(=N)N)NC(=O)[C@@H](Cc1c[nH]cn1)NC(=O)[C@@H](Cc1c[nH]c2ccccc12)NC(=O)[C@@H](Cc1c[nH]cn1)NC(=O)[C@@H](Cc1ccccc1)NC(=O)[C@H](NC(=O)[C@@H](Cc1ccc(O)cc1)NC(=O)CNC(=O)CNC(=O)CCCCCNC(=O)CN1CCN(CC(=O)O)CCN(CC(=O)O)CCN(CC(=O)O)CC1)[C@H](C)O)C(=O)N[C@H](CC(N)=O)C(=O)N1CCC[C@@H]1C(=O)O` [^68Ga-DOTA-^DTBP-3, metal not drawn] ({DOTA-Ahx}-GG[dY][dT][dF][dH][dW][dH][dR][dL][dN][dP]-OH; N-terminus and C-terminus assumed), the “tumor uptake on micro-PET” value ([1]; 4T1 tumor, 0.5 h after intravenous injection, about 5.55 MBq, n = 3) was 3.49 ± 0.14, the “tumor uptake on micro-PET, blocking group” value ([1]; 4T1 tumor-bearing mice pretreated with 40-fold excess unlabeled ^DTBP-3 for 0.5 h) was “no obvious uptake” and the “time of peak uptake of tumor tissue” value ([1]; mouse, in vivo) was “about 0.5 h”. For the same compound, the “cell uptake of radiotracer (highest)” value (A375 cells) was 2.56 ± 0.19%, the “cell uptake of radiotracer (highest)” value (4T1 cells; 4T1 cells (high TIGIT expression), at 0.5 h, time points 15, 30, 60, 120 min, γ-count) was 8.41 ± 1.22% and the “4T1 cellular uptake with excess unlabeled ^DTBP-3 (blocking)” value (4T1 cells; 4T1 cells, excess unlabeled ^DTBP-3) was “could be blocked”. The “tumor-to-blood ratio (biodistribution)” value ([2]; 0.5 h post-injection) was “high”, the “tumor-to-muscle ratio (biodistribution)” value ([2]; 0.5 h post-injection) was “high” and the “clearance from the blood” value ([2]; mouse, in vivo) was “quickly cleared”.

— PMC10154443, “Peptide-based PET imaging agent of tumor TIGIT expression” (EJNMMI Research, 2023)
